Literature values, collected in article PMC9516332 (Frontiers in Oncology, 2022).
Read-outs that look alike come from different tables or passages of the source.

What was measured:
Details in all cases: cited from earlier work
[1] = molecular target: T1, panel of 255 wild-type kinases (Homo sapiens, UniProt P43403)
T1 sequence (P43403 1-619): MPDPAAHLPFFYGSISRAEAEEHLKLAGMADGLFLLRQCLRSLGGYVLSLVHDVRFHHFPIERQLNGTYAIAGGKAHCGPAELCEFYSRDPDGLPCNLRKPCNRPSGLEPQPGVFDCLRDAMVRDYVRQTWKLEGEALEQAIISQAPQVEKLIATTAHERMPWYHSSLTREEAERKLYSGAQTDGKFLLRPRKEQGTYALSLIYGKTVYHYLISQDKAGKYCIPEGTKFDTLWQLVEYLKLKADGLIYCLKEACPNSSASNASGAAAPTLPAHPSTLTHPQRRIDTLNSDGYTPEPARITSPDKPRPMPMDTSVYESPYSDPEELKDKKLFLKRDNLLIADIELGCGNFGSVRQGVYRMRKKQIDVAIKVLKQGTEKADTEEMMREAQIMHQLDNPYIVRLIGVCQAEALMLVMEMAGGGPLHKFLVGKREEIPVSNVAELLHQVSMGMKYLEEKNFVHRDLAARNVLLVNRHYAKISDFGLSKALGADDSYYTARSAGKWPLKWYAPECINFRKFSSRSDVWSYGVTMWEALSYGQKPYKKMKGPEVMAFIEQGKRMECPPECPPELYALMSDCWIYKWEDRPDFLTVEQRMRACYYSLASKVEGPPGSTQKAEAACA

[2] = molecular target: panel of 255 wild-type kinases (Homo sapiens, UniProt Q5VT25)
[3] = molecular target: T2, panel of 255 wild-type kinases (Homo sapiens, UniProt O14920)
T2 sequence (O14920 1-756): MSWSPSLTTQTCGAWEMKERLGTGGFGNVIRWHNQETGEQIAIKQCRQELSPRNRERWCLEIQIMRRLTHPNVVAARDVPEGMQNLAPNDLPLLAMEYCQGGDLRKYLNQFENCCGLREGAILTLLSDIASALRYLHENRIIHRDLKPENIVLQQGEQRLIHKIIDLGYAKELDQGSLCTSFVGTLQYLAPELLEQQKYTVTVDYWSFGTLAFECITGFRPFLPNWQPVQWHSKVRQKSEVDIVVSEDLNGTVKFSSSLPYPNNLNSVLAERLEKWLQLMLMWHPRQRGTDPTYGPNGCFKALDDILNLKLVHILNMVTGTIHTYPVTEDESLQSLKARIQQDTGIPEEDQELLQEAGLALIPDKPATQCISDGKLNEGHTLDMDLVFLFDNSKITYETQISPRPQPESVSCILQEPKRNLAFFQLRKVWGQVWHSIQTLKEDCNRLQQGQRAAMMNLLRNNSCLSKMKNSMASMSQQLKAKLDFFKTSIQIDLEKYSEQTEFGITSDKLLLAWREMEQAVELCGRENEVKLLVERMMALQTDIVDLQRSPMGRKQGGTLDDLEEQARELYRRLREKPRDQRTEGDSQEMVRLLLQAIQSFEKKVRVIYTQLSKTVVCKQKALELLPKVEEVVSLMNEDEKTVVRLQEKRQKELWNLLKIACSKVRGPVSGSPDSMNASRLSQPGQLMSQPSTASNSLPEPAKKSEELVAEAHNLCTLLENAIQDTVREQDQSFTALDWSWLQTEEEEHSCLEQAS

[4] = molecular target: panel of 255 wild-type kinases (Homo sapiens, UniProt P29376)
[5] = molecular target: panel of 255 wild-type kinases (Homo sapiens, UniProt Q9NQU5)
[6] = molecular target: T3, panel of 255 wild-type kinases (Homo sapiens, UniProt O15530)
T3 sequence (O15530 1-556): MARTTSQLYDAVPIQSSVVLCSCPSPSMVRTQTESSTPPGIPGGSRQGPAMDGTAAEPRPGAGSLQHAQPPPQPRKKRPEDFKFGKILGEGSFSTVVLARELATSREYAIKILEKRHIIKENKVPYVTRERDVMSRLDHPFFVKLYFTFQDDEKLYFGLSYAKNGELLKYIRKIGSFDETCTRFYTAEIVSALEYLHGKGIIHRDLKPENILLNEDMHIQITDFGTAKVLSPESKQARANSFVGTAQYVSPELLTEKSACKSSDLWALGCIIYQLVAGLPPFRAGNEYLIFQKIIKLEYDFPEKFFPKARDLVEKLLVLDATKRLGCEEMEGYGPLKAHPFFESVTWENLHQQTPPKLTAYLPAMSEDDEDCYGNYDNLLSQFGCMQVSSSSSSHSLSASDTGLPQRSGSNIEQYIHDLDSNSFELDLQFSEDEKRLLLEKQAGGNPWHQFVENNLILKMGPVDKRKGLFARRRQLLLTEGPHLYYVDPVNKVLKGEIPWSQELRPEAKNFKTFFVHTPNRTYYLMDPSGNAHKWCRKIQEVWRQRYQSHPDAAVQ

[7] = molecular target: panel of 255 wild-type kinases (Homo sapiens, UniProt P45983)
[8] = kinase ZAP70, 1 µmol/L single concentration, ref DOI: 10.1158/1535-7163.MCT-18-0877
[9] = MRCKα, 1 µmol/L single concentration, ref DOI: 10.1158/1535-7163.MCT-18-0877
[10] = kinase IKKβ, 1 µmol/L single concentration, ref DOI: 10.1158/1535-7163.MCT-18-0877
[11] = kinase LTK, 1 µmol/L single concentration, ref DOI: 10.1158/1535-7163.MCT-18-0877
[12] = PAK6, 1 µmol/L single concentration, ref DOI: 10.1158/1535-7163.MCT-18-0877
[13] = kinase PDK1, 1 µmol/L single concentration, ref DOI: 10.1158/1535-7163.MCT-18-0877
[14] = kinase JNK1, 1 µmol/L single concentration, ref DOI: 10.1158/1535-7163.MCT-18-0877
[15] = kinase ZAP70, 1 µmol/L single concentration, ref DOI: 10.1371/journal.pone.0092146
[16] = MRCKα, 1 µmol/L single concentration, ref DOI: 10.1371/journal.pone.0092146
[17] = kinase IKKβ, 1 µmol/L single concentration, ref DOI: 10.1371/journal.pone.0092146
[18] = kinase LTK, 1 µmol/L single concentration, ref DOI: 10.1371/journal.pone.0092146
[19] = PAK6, 1 µmol/L single concentration, ref DOI: 10.1371/journal.pone.0092146
[20] = kinase PDK1, 1 µmol/L single concentration, ref DOI: 10.1371/journal.pone.0092146
[21] = kinase JNK1, 1 µmol/L single concentration, ref DOI: 10.1371/journal.pone.0092146

Compound | %-inhibition at 1 µmol/L, ZAP70 [1, 8] | %-inhibition, MRCKα [2, 9] | %-inhibition at 1 µmol/L, IKKβ [3, 10] | %-inhibition at 1 µmol/L, LTK [4, 11] | %-inhibition, PAK6 [5, 12] | %-inhibition at 1 µmol/L, PDK1 [6, 13] | %-inhibition at 1 µmol/L, JNK1 [7, 14] | %-inhibition at 1 µmol/L, ZAP70 [1, 15] | %-inhibition, MRCKα [2, 16] | %-inhibition at 1 µmol/L, IKKβ [3, 17] | %-inhibition at 1 µmol/L, LTK [4, 18] | %-inhibition, PAK6 [5, 19] | %-inhibition at 1 µmol/L, PDK1 [6, 20] | other results
CC#CC(=O)N1CCC[C@H]1c1nc(-c2ccc(C(=O)Nc3ccccn3)cc2)c2c(N)nccn12 [acalabrutinib] | -1.53% | -7.47% | -7% | 10% | -9% | -1.47% | -0.882% | – | – | – | – | – | – | –
CCc1cc2c(cc1N1CCC(N3CCOCC3)CC1)C(C)(C)c1[nH]c3cc(C#N)ccc3c1C2=O [alectinib] | 1.18% | -0.84% | -5% | 99% | -8% | -2.12% | 3.24% | – | – | – | – | – | – | –
COc1cc(N2CCC(N3CCN(C)CC3)CC2)ccc1Nc1ncc(Cl)c(Nc2ccccc2P(C)(C)=O)n1 [brigatinib] | – | – | – | – | – | – | – | – | – | – | – | – | – | %-inhibition at 1 µmol/L, ZAP70 [1]: 74%; %-inhibition, MRCKα [2]: 18%; %-inhibition at 1 µmol/L, IKKβ [3]: -4.22%; %-inhibition at 1 µmol/L, LTK [4]: 100%; %-inhibition, PAK6 [5]: 26%; %-inhibition at 1 µmol/L, PDK1 [6]: 4.31%; %-inhibition at 1 µmol/L, JNK1 [7]: 40%
Cc1cc(Nc2ncc(Cl)c(Nc3ccccc3S(=O)(=O)C(C)C)n2)c(OC(C)C)cc1C1CCNCC1 [ceritinib] | 10% | 1.61% | -7% | 100% | 18% | -2.25% | 9% | – | – | – | – | – | – | –
O=C(c1ccc(F)c(F)c1Nc1ccc(I)cc1F)N1CC(O)([C@@H]2CCCCN2)C1 [cobimetinib] | -3% | -7% | 1.29% | 2.85% | 2% | -1.65% | -3% | – | – | – | – | – | – | –
C[C@@H](Oc1cc(-c2cnn(C3CCNCC3)c2)cnc1N)c1c(Cl)ccc(F)c1Cl [crizotinib] | – | – | – | – | – | – | – | 21% | -8% | -5% | 102% | 3% | -5% | %-inhibition at 1 µmol/L, JNK1 [7, 21]: 0.431%
CC(C)(C)c1nc(-c2cccc(NS(=O)(=O)c3c(F)cccc3F)c2F)c(-c2ccnc(N)n2)s1 [dabrafenib] | – | – | – | – | – | – | – | 3.47% | -1.84% | 3.71% | 2.67% | 9% | -5.38% | %-inhibition at 1 µmol/L, JNK1 [7, 21]: -1.12%
C=CC(=O)N1CCC[C@@H](n2nc(-c3ccc(Oc4ccccc4)cc3)c3c(N)ncnc32)C1 [ibrutinib] | -4.51% | -0.621% | -0.348% | 2.76% | 9% | -2% | -2.33% | – | – | – | – | – | – | –
CO[C@@H]1[C@H](N(C)C(=O)c2ccccc2)C[C@H]2O[C@]1(C)n1c3ccccc3c3c4c(c5c6ccccc6n2c5c31)C(=O)NC4 [midostaurin] | 94% | 14% | -4% | 90% | 52% | 98% | 9% | – | – | – | – | – | – | –
C=CC(=O)Nc1cc(Nc2nccc(-c3cn(C)c4ccccc34)n2)c(OC)cc1N(C)CCN(C)C [osimertinib] | 18% | -4.55% | -1.32% | 97% | 7% | 0.0271% | -2.12% | – | – | – | – | – | – | –
CC(=O)Nc1cccc(-n2c(=O)n(C3CC3)c(=O)c3c(Nc4ccc(I)cc4F)n(C)c(=O)c(C)c32)c1 [trametinib] | – | – | – | – | – | – | – | -3% | -0.565% | 0.741% | -7% | 8% | -5.52% | %-inhibition at 1 µmol/L, JNK1 [7, 21]: -4.68%
CCCS(=O)(=O)Nc1ccc(F)c(C(=O)c2c[nH]c3ncc(-c4ccc(Cl)cc4)cc23)c1F [vemurafenib] | – | – | – | – | – | – | – | 6% | 0.383% | -3.31% | 2.6% | -7% | -4% | %-inhibition at 1 µmol/L, JNK1 [7]: 1.47%
